Laboratory results as given in publication PMC8119466, “A screen of FDA-approved drugs identifies inhibitors of protein tyrosine phosphatase 4A3 (PTP4A3 or PRL-3)” (Scientific Reports, 2021).
Counter-ions that a name gives are not always drawn. Like-named read-outs stand apart in the source and are kept apart here. Non-standard residues stand in square brackets, D forms with d. Residues, ends and D or L forms follow the SMILES beside them. pGlu = O=C1CC[C@@H](C(=O)O)N1; Thz = O=C(O)[C@@H]1CSCN1

Legend:
Type in all cases: biochemical
recombinant PRL-3 = target: T1, recombinant PRL-3 (Homo sapiens, UniProt O75365); assay: In vitro phosphatase assay (DiFMUP hydrolysis), PRL-3; also: test concentration or dose not given here
T1 construct: 6xHis (N, cleaved yes); made in house; host or cells: E. coli One Shot BL21 Star
T1 sequence (O75365 whole entry): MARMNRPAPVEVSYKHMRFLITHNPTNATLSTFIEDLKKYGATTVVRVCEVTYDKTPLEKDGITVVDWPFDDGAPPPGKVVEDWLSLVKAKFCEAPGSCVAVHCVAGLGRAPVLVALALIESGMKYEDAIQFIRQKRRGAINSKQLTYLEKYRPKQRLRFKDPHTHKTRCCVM

recombinant PRL-2 = target: T2, recombinant PRL-2 (Homo sapiens, UniProt Q12974); assay: In vitro phosphatase assay (DiFMUP hydrolysis), PRL-2;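 also: PRL-2 activity read as DiFMUP hydrolysis after 20 min at room temperature with drug, enzyme first pre-reduced at 4 °C for 20 min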
T2 construct: 6xHis (N, cleaved yes); made in house; host or cells: E. coli One Shot BL21 Star
T2 sequence (Q12974 1-167): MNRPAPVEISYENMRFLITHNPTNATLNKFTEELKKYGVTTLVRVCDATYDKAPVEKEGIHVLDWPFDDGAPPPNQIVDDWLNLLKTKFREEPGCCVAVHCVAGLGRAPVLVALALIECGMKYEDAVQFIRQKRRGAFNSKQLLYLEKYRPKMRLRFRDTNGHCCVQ

recombinant PRL-1 = target: T3, recombinant PRL-1 (Homo sapiens, UniProt Q93096); assay: In vitro phosphatase assay (DiFMUP hydrolysis), PRL-1; also: test concentration or dose not given here
T3 construct: 6xHis (N, cleaved yes); made in house; host or cells: E. coli One Shot BL21 Star
T3 sequence (Q93096 1-173): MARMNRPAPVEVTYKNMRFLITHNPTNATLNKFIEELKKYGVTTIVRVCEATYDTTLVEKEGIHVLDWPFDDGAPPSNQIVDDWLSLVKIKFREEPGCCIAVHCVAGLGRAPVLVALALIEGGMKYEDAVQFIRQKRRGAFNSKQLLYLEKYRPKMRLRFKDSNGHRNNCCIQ

[1] = FDA-approved drug screen, compared to DMSO
[2] = FDA-approved drug screen, activity compared to DMSO

Row | Compound | % Phosphatase Activity (compared to DMSO) PRL-3 (recombinant PRL-3; [1]) | % Phosphatase Activity (compared to DMSO) PRL-2 (recombinant PRL-2; [1]) | % Phosphatase Activity (compared to DMSO) PRL-1 (recombinant PRL-1; [1]) | also measured
1 | CCC[C@@H]1C[C@@H](C(=O)N[C@@H]([C@H]2O[C@H](SC)[C@H](OP(=O)(O)O)[C@@H](O)[C@H]2O)[C@H](C)Cl)N(C)C1 [Clindamycin Phosphate] | 88% | 76% | 93% | 
2 | CCOC(=O)c1ccc(N)cc1.Cl [Benzocaine hydrochloride] | 84% | 102% | 100% | 
3 | CCC[C@H](NC(=O)[C@@H]1[C@H]2CCC[C@H]2CN1C(=O)[C@@H](NC(=O)[C@@H](NC(=O)c1cnccn1)C1CCCCC1)C(C)(C)C)C(=O)C(=O)NC1CC1 [Telaprevir (VX-950)] |  |  |  | % Phosphatase Activity (compared to DMSO) PRL-3 (recombinant PRL-3; [2]): 92%; % Phosphatase Activity (compared to DMSO) PRL-2 (recombinant PRL-2; [2]): 104%; % Phosphatase Activity (compared to DMSO) PRL-1 (recombinant PRL-1; [2]): 95%
4 | O=C(/C=C/C=C/c1ccc2c(c1)OCO2)N1CCCCC1 [Piperine] | 106% | 119% | 125% | 
5 | CCCN[C@H]1CCc2nc(N)sc2C1 [Pramipexole dihydrochloride monohydrate] |  |  |  | % Phosphatase Activity (compared to DMSO) PRL-3 (recombinant PRL-3): 90%; % Phosphatase Activity (compared to DMSO) PRL-2 (recombinant PRL-2): 98%; % Phosphatase Activity (compared to DMSO) PRL-1 (recombinant PRL-1): 87%
6 | CC(C[N+](C)(C)C)OC(N)=O (stereo not drawn) [Bethanechol chloride] | 77% | 119% | 104% | 
7 | CC(C)OC(=O)C(C(=O)OC(C)C)=C1SC=CS1 [Malotilate] | 61% | 58% | 70% | 
8 | CC(C)NCC(O)COc1ccc(COCCOC(C)C)cc1 (stereo not drawn) [Bisoprolol fumarate] | 89% | 124% | 104% | 
9 | COc1cc(C2Oc3cc([C@H]4Oc5cc(O)cc(O)c5C(=O)[C@@H]4O)ccc3OC2CO)ccc1O (stereo partly drawn) [Silibinin] |  |  |  | % Phosphatase Activity (compared to DMSO) PRL-3 (recombinant PRL-3; [2]): 87%; % Phosphatase Activity (compared to DMSO) PRL-2 (recombinant PRL-2; [2]): 87%; % Phosphatase Activity (compared to DMSO) PRL-1 (recombinant PRL-1; [2]): 88%
10 | Cc1cnc(Nc2ccc(OCCN3CCCC3)cc2)nc1Nc1cccc(S(=O)(=O)NC(C)(C)C)c1 [TG101348 (SAR302503)] |  |  |  | % Phosphatase Activity (compared to DMSO) PRL-3 (recombinant PRL-3; [2]): 95%; % Phosphatase Activity (compared to DMSO) PRL-2 (recombinant PRL-2; [2]): 96%; % Phosphatase Activity (compared to DMSO) PRL-1 (recombinant PRL-1; [2]): 97%
11 | O=C1NC(=O)[C@@H](c2cn3c4c(cccc24)CCC3)[C@@H]1c1c[nH]c2ccccc12 [Tivantinib (ARQ 197)] |  |  |  | % Phosphatase Activity (compared to DMSO) PRL-3 (recombinant PRL-3; [2]): 90%; % Phosphatase Activity (compared to DMSO) PRL-2 (recombinant PRL-2; [2]): 83%; % Phosphatase Activity (compared to DMSO) PRL-1 (recombinant PRL-1; [2]): 95%
12 | CNCC[C@@H](Oc1ccccc1C)c1ccccc1 [Atomoxetine HCl] | 89% | 109% | 98% | 
13 | CO[C@H]1C[C@@H]2CC[C@@H](C)[C@@](O)(O2)C(=O)C(=O)N2CCCC[C@H]2C(=O)O[C@H]([C@H](C)C[C@@H]2CC[C@@H](O)[C@H](OC)C2)CC(=O)[C@H](C)/C=C(\C)[C@@H](O)[C@@H](OC)C(=O)[C@H](C)C[C@H](C)/C=C/C=C/C=C/1C [Rapamycin (Sirolimus)] | 75% | 89% | 88% | 
14 | CCN(CC)CCOc1ccc(C(=C(Cl)c2ccccc2)c2ccccc2)cc1 [Clomifene citrate] | 96% | 128% | 120% | 
15 | Cl.NCC(O)c1ccc(O)cc1 (racemic) [(+,-)-Octopamine HCl] | 78% | 102% | 110% | 
16 | COc1ccc2c(c1)C(=O)N(CCc1ccc(S(=O)(=O)NC(=O)NC3CCCCC3)cc1)C(=O)C2(C)C [Gliquidone] | 86% | 86% | 99% | 
17 | C#C[C@]1(O)CC[C@H]2[C@@H]3CCC4=CC(=O)CC[C@@H]4[C@H]3CC[C@@]21CC [Levonorgestrel] | 78% | 101% | 94% | 
18 | Cc1nc(C(=O)NCC(=O)O)c(O)c2ccc(Oc3ccccc3)cc12 [FG-4592] | 95% | 139% | 136% | 
19 | CC(=O)O[C@H]1C[C@@H]2CC[C@@H]3[C@H](CC[C@@]4(C)[C@H]3C[C@H]([N+]3(C)CCCCC3)[C@@H]4OC(C)=O)[C@@]2(C)C[C@@H]1N1CCCCC1 [Vecuronium Bromide] |  |  |  | % Phosphatase Activity (compared to DMSO) PRL-3 (recombinant PRL-3; [2]): 87%; % Phosphatase Activity (compared to DMSO) PRL-2 (recombinant PRL-2; [2]): 100%; % Phosphatase Activity (compared to DMSO) PRL-1 (recombinant PRL-1; [2]): 103%

Row | Compound | % Phosphatase Activity (compared to DMSO) PRL-3 (recombinant PRL-3; [1]) | % Phosphatase Activity (compared to DMSO) PRL-2 (recombinant PRL-2; [1]) | % Phosphatase Activity (compared to DMSO) PRL-1 (recombinant PRL-1; [1]) | also measured
20 | Cc1onc(-c2ccccc2Cl)c1C(=O)N[C@@H]1C(=O)N2[C@@H]1SC(C)(C)[C@@H]2C(=O)O [Cloxacillin Sodium] | 87% | 104% | 98% | 
21 | O=C1CC[C@@H](C(=O)N2CSC[C@H]2C(=O)O)N1 [Pidotimod] ([pGlu]-[Thz]-OH) | 83% | 103% | 113% | 
22 | C[C@H](CCC(=O)O)[C@H]1CC[C@H]2[C@@H]3[C@H](O)C[C@@H]4C[C@H](O)CC[C@]4(C)[C@H]3CC[C@]12C [Chenodeoxycholic Acid] | 115% | 102% | 87% | 
23 | CC[N+](CC)(CC)CCOc1cccc(OCC[N+](CC)(CC)CC)c1OCC[N+](CC)(CC)CC [Gallamine Triethiodide] | 84% | 105% | 104% | 
24 | O=C(O)CCc1nc2ccccc2[nH]1 [Procodazole] | 86% | 85% | 98% | 
25 | CN(C)[C@@H](CCOc1cccc2ccccc12)c1ccccc1 [Dapoxetine HCl] | 111% | 109% | 99% | 
26 | C#Cc1cccc(Nc2ncnc3cc(OC)c(OCCCCCCC(=O)NO)cc23)c1 [CUDC-101] | 79% | 87% | 94% | 
27 | OCc1cc(C(O)CNCCCCCCOCCCCc2ccccc2)ccc1O (stereo not drawn) [Salmeterol Xinafoate] | 110% | 136% | 146% | 
28 | COc1cc(/C=C/C(=O)CC(=O)/C=C/c2ccc(O)c(OC)c2)ccc1O [Curcumin] | 85% | 77% | 78% | 
29 | CC1CCc2c(N3CCC(O)CC3)c(F)cc3c(=O)c(C(=O)O)cn1c23 (stereo not drawn) [Nadifloxacin] | 86% | 108% | 133% | 
30 | CCN1CC(CCN2CCOCC2)C(c2ccccc2)(c2ccccc2)C1=O.Cl (stereo not drawn) [Doxapram HCl] | 92% | 98% | 113% | 
31 | CS(=O)(=O)CCNCc1ccc(-c2ccc3ncnc(Nc4ccc(OCc5cccc(F)c5)c(Cl)c4)c3c2)o1.Cc1ccc(S(=O)(=O)O)cc1.Cc1ccc(S(=O)(=O)O)cc1 [Lapatinib (GW-572016) Ditosylate] |  |  |  | % Phosphatase Activity (compared to DMSO) PRL-3 (recombinant PRL-3): 142%; % Phosphatase Activity (compared to DMSO) PRL-2 (recombinant PRL-2): 255%; % Phosphatase Activity (compared to DMSO) PRL-1 (recombinant PRL-1): 212%
32 | COC(=O)N[C@H](C(=O)N1CCC[C@H]1c1ncc(-c2ccc(-c3ccc(-c4cnc([C@@H]5CCCN5C(=O)[C@@H](NC(=O)OC)C(C)C)[nH]4)cc3)cc2)[nH]1)C(C)C [Daclatasvir (BMS-790052)] | 236% | 324% | 320% | 
33 | O=c1sn(-c2cccc3ccccc23)c(=O)n1Cc1ccccc1 [Tideglusib] |  |  |  | % Phosphatase Activity (compared to DMSO) PRL-3 (recombinant PRL-3; [2]): 98%; % Phosphatase Activity (compared to DMSO) PRL-2 (recombinant PRL-2; [2]): 120%; % Phosphatase Activity (compared to DMSO) PRL-1 (recombinant PRL-1; [2]): 107%
34 | CNC(=C[N+](=O)[O-])NCCSCc1csc(CN(C)C)n1 [Nizatidine] | 97% | 105% | 87% | 
35 | Cc1[nH]c(=O)c(C#N)cc1-c1ccncc1 [Milrinone] | 83% | 110% | 98% | 
36 | CC(C)(C)NC[C@H](O)COc1nsnc1N1CCOCC1 [Timolol Maleate] |  |  |  | % Phosphatase Activity (compared to DMSO) PRL-3 (recombinant PRL-3; [2]): 87%; % Phosphatase Activity (compared to DMSO) PRL-2 (recombinant PRL-2; [2]): 111%; % Phosphatase Activity (compared to DMSO) PRL-1 (recombinant PRL-1; [2]): 107%
37 | Cc1onc(-c2ccccc2)c1-c1ccc(S(N)(=O)=O)cc1 [Valdecoxib] |  |  |  | % Phosphatase Activity (compared to DMSO) PRL-3 (recombinant PRL-3; [2]): 80%; % Phosphatase Activity (compared to DMSO) PRL-2 (recombinant PRL-2; [2]): 103%; % Phosphatase Activity (compared to DMSO) PRL-1 (recombinant PRL-1; [2]): 97%
